Test results from patent US6589951B1, “Phthalazine derivatives as phosphodiesterase 4 inhibitors” (Zambon Group S.p.A., priority 1997, dated 2003).

Experiments:
PDE 3 = biological target: T1, PDE 3 (Homo sapiens, UniProt Q14432); test: PDE 3 enzyme inhibition test (SPA); type: biochemical; conditions: at 10^-6 M; enzyme from human platelets
T1 construct: Human platelets were prepared from platelet rich plasma (PRP); from tissue; host or cells: human platelets (platelet rich plasma, L. Sacco Hospital, Milan)
Experimental: (§1) Human platelets were prepared from platelet rich plasma (PRP) obtained from the Hematological Dept. of the “L.Sacco” Hospital of Milan. The PRP was centrifuged at 2,200 rpm for 15 minutes at 4° C. and the pellet was suspended in lysis solution (15 ml; 155 mM NH4Cl, 10 mM KHCO3 and 0.1 mM Na2EDTA, pH=7.4) and incubated for 10 minutes on ice-bath to remove the erythrocyte contamination. After a centrifuging at 1,400 rpm for 10 minutes at 4° C., platelets were suspended in 10 ml of […], 5 mM KCl, 1 mM MgSO4, 10 mM glucose, 10 mM HEPES and 0.05 U/ml of hirudin (pH=7.4), and stored at −20° C. until homogenization and chromatography.
(§2) Before the chromatographic step, platelets were thawed and 50 ml of 20 mM TRIS (pH=6.5) containing 5 mM βmercapto-ethanol, 2 mM EDTA, 50mM sodium acetate and 50 μM PMSF (homogenization buffer) were added. The platelet suspension was then homogenized by a Polytron homogenizer (Polytron PT 1200) for 20 seconds. The homogenate was centrifuged at 14,500 rpm for 20 minutes at 4° C., and the supernatant was applied to a UNO Q12 column (Bio-Rad) pre-equilibrated with the PMSF. A flow rate of 4.5 ml/min was used throughout the ion exchange chromatography procedure. The column was washed with PMSF (180 ml) and PDE 3 and PDE 5 were eluted by sodium acetate linear gradient from 0.05M to 1M. The fractions containing enzymatic activity were joined, dialysed against water and concentrated 10 times by ultrafiltration. The resulting solution was stored at −20° C. in the presence of ethylenglycole (30%) v/v) until use.
(§3) The enzyme activity was assessed with an Amersham kit based on the SPA technique (Scintillation Proximity Assay). The enzymatic reaction was effected in a total volume of 100 μl of TRIS/HCl buffer (50 mM, pH7.5), MgCl2 (8.3 mM), EGTA (1.7 mM), cAMP (for PDE 3 assay) or cGMP (for PDE 5 assay) (1 μM), [^3H]cAMP or [^3H]cGMP (10 μl), and 10 μl of the compounds of the invention. The reaction was started by adding the enzyme (10 μl) incubated for 40 minutes at 30° C. and stopped by adding 50 μl of SPA beads. The radioactivity due to the particles was measured in β-emitting counter. The results are expressed as percent activity versus the control present in each test.

PDE 5 = biological target: T2, PDE 5 (Homo sapiens, UniProt O76074); test: PDE 5 enzyme inhibition test (SPA); type: biochemical; conditions: at 10^-6 M; enzyme from human platelets
T2 construct: Human platelets were prepared from platelet rich plasma (PRP); from tissue; host or cells: human platelets (platelet rich plasma, L. Sacco Hospital, Milan)
Experimental: as §1, §2, §3

TNFα = TNFα synthesis inhibition in LPS-stimulated human monocytes (ELISA); type: cell-based; conditions: Monocyte, LPS 1 ng/ml, 16 hours
Experimental: The monocytes were isolated from peripheral blood of healthy volunteers according the procedure of Schreek L., J. Natl. Cancer Inst., 1964, 32, 507. The monocytes and lymphocytes population was isolated by Ficoll gradient centrifugation, and the cells diluted at a density of 2.5×10^6 cells/ml in RPMI1640 incubation containing 1% inactivated bovine fetal serum, penicillin (100 U/ml) and streptomycin (100 U/ml) were placed in 24-wells plates (1 ml/well) and left to adhere for 1 hour at 37° C. with 5% CO2. At the end of the incubation the lymphocytes not adhering were removed by aspiration and the monocytes adhered to the plate were used in the next step.
The TNFα synthesis from human monocytes was measured according to the method of Barnette M. et al., Biochemical Pharmacology, 1996, 51, 949. The monocles were incubated for 1 hour with 1 ml of RPMI1640 incubation medium (1% inactivated bovine serum, 100 U/ml penicillin and streptomycin) containing different concentrations of the products according to the present invention or the carrier only for the controls. The TNFα synthesis from monocytes was induced by adding 1ng/ml of LPS (lipopolysaccharide of E. Coli) and after 16 hours of incubation at 37° C., 5% CO2, the incubation medium was removed, and the surnatant stored at −80° C. until the measurement. The TNFα levels were determined by ELISA test with an Amersham kit. The results are set forth in Table 2 as IC50 measured with the same calculation of example 67.

PDE 4 = PDE 4 enzyme inhibition test (SPA); type: biochemical, human; conditions: for activity on PDE 4 (in words): summary statement in description
Experimental: The polymorphonucleate leukocytes (PMNs) were isolated from peripheral blood of healthy volunteers according to what described by Boyum A, Scand. J. Immunol., 1976, 5° suppl., 9). Shortly, the isolation of the PMNs was effected by Ficoll-Paque gradient centrifugation followed by sedimentation on dextrane and the erythrocyte contamination was eliminated by hypotonic lysis.
The human PMNs were resuspended in TRIS/HCl buffer (10 mM pH 7.8) containing MgCl2 (5mM), EGTA (4 mM), mercaptoethanol (5 mM), TRITON-X100 (1%), pepstatin A (1 μM), PMSF (100 μM) and leupeptin (1 μM), and homogenised by Polytron. The homogenate was centrifuged at 25,000×g for 30 minutes at 4° C. and the surnatant was used for the PDE 4 enzyme purification by ion exchange chromatography using the FPLC technique according to what described by Schudt C. et al., Naunyn-Schmidberg's Arch. Pharmacol., 1991, 334, 682. The surnatant was seeded on a UNO Q12 column (Bio-Rad) and the enzyme was eluted by sodium acetate gradient from 50mM to 1M. The fractions containing enzymatic activity were joined, dialysed against water and concentrated. The resulting PDE 4 enzyme was stored at −20° C. in the presence of ethylenglycole (30%) v/v) until use.
The enzyme activity was assessed with an Amersham kit based on the SPA technique (Scintillation Proximity Assay). The enzymatic reaction was effected in a total volume of 100 μl of TRIS/HCl buffer (50 mM, pH7.5), MgCl2 (8.3mM), EGTA (1.7 mM), cAMP (1μM) and [^3H]cAMP (˜100.000 dpm). The compounds of the invention and the reference ones were added at the wanted concentrations. As reference compounds 6,7 dimethoxy-4-(pyridin-4-ylmethyl)-2H-phthalazin-1 on (reference 1) and 6,7-dimethoxy-4-(piperidin-4-ylmethyl)-2H-phthalazin-1-one (reference 2) embraced by the general formula of the patent application EP-0 722 936 (in the name of Eisai) were used. The reaction was started by adding the enzyme (15 μg protein/ml) in 40 minutes at 30° C. and stopped with 50 μl of SPA particles suspension. The radioactivity of the particles was measured in β-emitting counter. The IC50 values were computed over 9 equidistant concentrations in logarithmic scale using a 4-parameters logistic function by a software.

[1] = at 10^-6 M, enzyme from human PMNs
[2] = at 10^-8 M, enzyme from human PMNs
[3] = enzyme from human PMNs, 9 concentrations, 4-parameter logistic
[4] = at 10^-5 M, enzyme from human PMNs

T1 sequence (Q14432 whole entry): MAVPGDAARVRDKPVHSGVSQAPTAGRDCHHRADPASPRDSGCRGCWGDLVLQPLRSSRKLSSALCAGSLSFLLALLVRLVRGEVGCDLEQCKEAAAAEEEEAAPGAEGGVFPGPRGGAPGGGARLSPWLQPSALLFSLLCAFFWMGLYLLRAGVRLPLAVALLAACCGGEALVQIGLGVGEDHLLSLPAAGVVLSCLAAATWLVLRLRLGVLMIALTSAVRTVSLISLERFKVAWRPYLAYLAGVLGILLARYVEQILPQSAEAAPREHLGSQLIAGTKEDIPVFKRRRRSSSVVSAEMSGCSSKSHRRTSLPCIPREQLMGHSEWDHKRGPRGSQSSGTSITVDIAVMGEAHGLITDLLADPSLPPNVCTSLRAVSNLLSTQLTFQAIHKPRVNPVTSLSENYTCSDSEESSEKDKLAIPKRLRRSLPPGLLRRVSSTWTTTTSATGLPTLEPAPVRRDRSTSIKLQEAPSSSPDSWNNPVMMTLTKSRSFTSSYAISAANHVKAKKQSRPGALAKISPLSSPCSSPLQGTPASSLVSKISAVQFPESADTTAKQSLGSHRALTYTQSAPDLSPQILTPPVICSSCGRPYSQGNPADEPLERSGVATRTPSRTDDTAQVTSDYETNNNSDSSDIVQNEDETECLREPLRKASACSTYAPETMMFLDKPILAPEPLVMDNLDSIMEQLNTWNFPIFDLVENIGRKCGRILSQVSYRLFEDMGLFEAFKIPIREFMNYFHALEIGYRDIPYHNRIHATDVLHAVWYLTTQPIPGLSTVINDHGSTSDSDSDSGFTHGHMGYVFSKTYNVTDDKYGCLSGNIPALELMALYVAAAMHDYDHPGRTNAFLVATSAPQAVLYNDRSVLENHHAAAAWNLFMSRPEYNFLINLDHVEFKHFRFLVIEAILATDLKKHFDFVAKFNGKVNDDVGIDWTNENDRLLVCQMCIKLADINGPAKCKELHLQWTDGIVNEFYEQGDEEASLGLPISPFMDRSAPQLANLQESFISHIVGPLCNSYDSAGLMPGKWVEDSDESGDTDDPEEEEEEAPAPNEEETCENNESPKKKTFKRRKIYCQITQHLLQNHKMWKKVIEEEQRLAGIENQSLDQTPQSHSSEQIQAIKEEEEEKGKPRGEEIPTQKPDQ

Compound	inhibition at 1 µM (PDE 3) [%]	inhibition at 1 µM (PDE 5) [%]	IC50 (TNFα) [nM]	PDE 4 % inhibition (PDE 4; [1]) [%]	PDE 4 % inhibition (PDE 4; [2]) [%]	IC50 (PDE 4; [3]) [nM]	PDE 4 % inhibition (PDE 4; [4]) [%]	IC50 (PDE 4; reference compounds) [nM]	activity on PDE 4 (in words) (PDE 4)
FC(F)Oc1ccc2c(Cc3c(Cl)cncc3Cl)nncc2c1OC1CCCC1 [Compound 3, 5-Cyclopentyloxy-1-(3,5-dichloropyridin-4-yl-methyl)-6-difluoromethoxy-phthalazine]	5	14	167 ± 79	100	34	38.9 ± 7			
COc1ccc2c(Cc3c(Cl)cncc3Cl)nncc2c1OC1CCOC1 (stereo not drawn) [Compound 13]	4	2				153 ± 85			
COc1ccc2c(Cc3c(Cl)cncc3Cl)n[n+]([O-])cc2c1OC1CCOC1 (stereo not drawn) [Compound 14]			389 ± 47			298 ± 37			
COc1ccc2c(Cc3c(Cl)cncc3Cl)n[n+]([O-])cc2c1OC1CCCC1 [Compound 2, 5-Cyclopentyloxy-1-(3,5-dichloropyridin-4-ylmethyl)-6-methoxy-phthalazin-3-oxide]	20	4	139 ± 55	94	25	42.4 ± 5	97		
COc1ccc2c(Cc3c(Cl)cncc3Cl)nncc2c1OC1Cc2ccccc2C1 [Compound 5, 1-(3,5-Dichloro-pyridin-4-methyl)5-(indan-2-yloxy)-6-methoxy-2H-phthalazine]			252 ± 120	80	33	29.5 ± 4			
COc1ccc2c(Cc3c(Cl)c[n+]([O-])cc3Cl)n[n+]([O-])cc2c1OC1CCOC1 (stereo not drawn) [Compound 19]		8				206 ± 124			
FC(F)Oc1ccc2c(Cc3c(Cl)cncc3Cl)nncc2c1OC1CCOC1 (stereo not drawn) [Compound 15, 1-(3,5-Dichloro-pyridin-4-ylmethyl)-6-difluoromethoxy-5-(tetrahydro-furan-3-yloxy)-phthalazine]	11	0				282 ± 36			
COc1ccc2c(Cc3c(Cl)cncc3Cl)nncc2c1OCCCCCc1ccccc1 [Compound 6, 1-(3,5-Dichloro-pyridin-4-methyl)-5-(5-phenyl-pentyl-1-oxy)-6-methoxy-phthalazine]	25	20	83.5 ± 24	79	27	56.8 ± 9			
COc1ccc2c(Nc3c(Cl)cncc3Cl)nncc2c1OC1CCCC1 [Compound 4, 5-Cyclopentyloxy-1-(3,5-dichloropyridin-4-ylamino)-6-methoxy-phthalazine]	8	19	187 ± 35	73		58.9 ± 5			
COc1cc2cnnc(Cc3c(Cl)cncc3Cl)c2cc1OC1CCCC1 [Compound 7, 7-Cyclopentyloxy-1-(3,5-dichloropyridin-4-ylmethyl)-6-methoxy-phthalazine]						186 ± 43			
COc1ccc2c(Cc3c(Cl)cncc3Cl)nncc2c1OC1CCCC1 [Compound 1, 5-Cyclopentyloxy-1-(3,5-dichloropyridin-4-ylmethyl)-6-methoxy-phthalazine]	0	20	254 ± 84	84	19	53.1 ± 10			
CCc1nnc(Cc2c(Cl)cncc2Cl)c2cc(OC3CCCC3)c(OC)cc12 [Compound 10, 7-Cyclopentyloxy-1-(3,5-dichloro-pyridin-4-ylmethyl)-4-ethyl-6-methoxy-phthalazine]	20	20	259 ± 86	80	33	74.9 ± 8	93		
COc1cc2c(C)nnc(Cc3c(Cl)cncc3Cl)c2cc1OC1CCCC1 [Compound 9, 7-Cyclopentyloxy-1-(3,5-dichloro-pyridin-4-ylmethyl)-4-methyl-6-methoxy-phthalazine]						146 ± 38			
COc1cc2c(CC3CCNCC3)n[nH]c(=O)c2cc1OC [Reference 2, 6,7-dimethoxy-4-(piperidin-4yl-methyl)-2H-phthalazin-1-one, reference compound]								> 100000	did not show to be active
COc1cc2c(Cc3ccncc3)n[nH]c(=O)c2cc1OC [Reference 1, 6,7-dimethoxy-4-(pyridin-4-yl-methyl)-2H-phthalazin-1-one, reference compound]								> 100000	did not show to be active
